Series [1] can be described thus: Human plasma protein binding (PPB). The series is classed as in vitro ADME. Here is the method:
Stock solutions: (1000 μM) of the peptides are prepared in DMSO.
Human plasma (mixed gender; containing K2-EDTA as anti-coagulant; pre-adjusted to pH 7.4—NB alternative species may be used) is spiked individually with each test peptide (1000 nmol/L), sampled for analysis and then incubated (n=4) at 37° C. in a water bath for 30 minutes. Following the incubation period, the plasma is sampled for analysis, then transferred to ultracentrifugation tubes and centrifuged (n=3) at […] and 4° C. for 3 hours, after which the supernatant is sampled for analysis. An additional aliquot of the supernatant is taken at the end of the centrifugation period to determine the total protein concentration. An aliquot of the incubated plasma will be stored at 4° C. for 3 hours and then sampled for analysis. At the point of sampling, all samples are matrix-matched, treated with ice-cold acetonitrile/methanol (4:1 (vfv)) containing internal standard, centrifuged al 2000 g and 4° C. for 10 minutes and stored prior to LC-MS/MS analysis. An appropriate positive control compound control will be incubated and centrifuged in parallel; control plasma is also centrifuged to generate samples for matrix-matching. Fraction unbound in plasma (Fuplasma) values is determined by comparison of the analyte response in plasma to the analyte response in the supernatant, determined via peak area response ratios.
The samples are analyzed by LC-MS/MS using a 6500 (or equivalent) triple quadrupole mass spectrometer (AB Sciex) coupled to an appropriate Liquid Chromatography (LC) system. Protein binding and stability values are determined via peak area ratios using multiple reaction monitoring (MRM) parameters following compound optimisation. Multiple reaction monitoring (MRM) is a highly sensitive method of targeted mass spectrometry (MS) that can be used to selectively detect and quantify peptides based on the screening of specified precursor peptide-to-fragment ion transitions.

The nature of series [2]: Dog plasma protein binding (PPB). The series is classed as in vitro ADME. Particulars: pH 7.4; fraction unbound; dog serum; read-out: Dog PPB (FUplasma). The source says: Dog PPB values presented below are obtained essentially as described for Human PPB samples, with the difference being that dog serum is used instead of human serum. Table 10 is provided with the values of (Fu,plasma) as fraction unbound expressed as a percentage compared to the percent bound. i.e. if the value is 0.0123, then the fraction unbound is […], which is 1.23% of the peptide is unbound and 98.77% is bound in plasma. Methods and analysis for performing the dog PPB protocol and results are the same as noted herein as for the Human PPB protocol and analysis.

A short description of series [3]: Solubility in phosphate buffer pH 7.4. The method, boiled down:
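3 mg of peptide treated with 100 μL portions of 200 mM phosphate buffer pH 7.4, sonicating/vortexing up to 1 min, with further buffer added until fully dissolved. Solubility then quantified by HPLC.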

The nature of series [4]: Pharmacokinetics in dog after IV and SC dosing. Particulars: in vivo. As to the method:
Pharmacokinetic (PK) were conducted in dog in order to determine the half-life after IV and SC dosing. The peptide was dissolved in 10% DMSO/0.09% Polysorbate/PBS pH 7.4 to a concentration of 3 nmol/mL and the animal were dose with a volume of 1 mL/kg SC or IV. Blood sample were collected at 0, 0.033, 0.083, 0.25, 0.5, 1, 2, 4, 6, 8, 12, 24, 48, 72, 96, 120, 168, 336 hours for IV dosing and 0.25, 0.5, 1, 2, 4, 6, 8, 12, 24, 48, 72, 96, 120, 168, 336 for SC dosing, EDTA-K2 was used as anticoagulant. The plasma concentration of the peptide was measured using LCMS. Allometric scaling of lipidated peptide pharmacokinetics including T1/2 and MRT is known in the art for rodent to dog and mini pig and to humans. […] See for example, Discovery and Development of Liraglutide and Semaglutide. Knudsen, L. B.; Lau, J. Frontiers in Endocrinology, 2019, vol 10, Article 155.

Series [5] addresses T1, human GLP-1R (Homo sapiens, UniProt P43220).
T1 construct: HEK-293T cells overexpressing full-length human GLP-1R; FLAG (N); host or cells: HEK-293T
Nature of the series: Human GLP1R agonist activity, intracellular cAMP accumulation. The series is classed as cell-based. Particulars: Human GLP1R cAMP EC50, HEK293T (nM), HEK-293T cells overexpressing human GLP-1R, 1 hr. Summed up:
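Frozen assay-ready cells washed and resuspended at 4×10^5 cells/mL in Krebs Ringer buffer, then incubated with compound 1 hr at room temperature in the dark. cAMP read by HTRF (anti-cAMP antibody, d2-cAMP tracer). Normalised to 1 nm GLP-1 (100%) and DMSO (0%).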
On the technique in general: Changes in cAMP serve as a functional read-out for many G protein-coupled receptors.

For series [6], the system named is C57BL/6J mice. Nature of the series: Oral glucose tolerance test (OGTT). The series is classed as in vivo. Particulars: 3 nmol/kg s.c., 24 hours before glucose loading. The method, boiled down:
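Peptide or vehicle given s.c. at 0.1, 0.3, 3 or 10 nmol/kg (peptide-dependent), 24 h before oral 50% dextrose at 5 ml/kg unless stated otherwise. Blood glucose read at 0, 15, 30 and 60 min. % inhibition = (1−(AUC cpd−AUC naïve)/(AUC veh−AUC naïve))×100.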

[7] abbreviates: both sexes, pH 7.4, fraction unbound, human plasma, 1000 nmol/L peptide, ultracentrifugation, read-out: Human PPB (FUplasma).

Each structure is given as a SMILES string. Starred links: 1 amine or outer side, 2 acyl side, 3 side chain; linkers in the order of their positions; H or OH if unused. Non-standard residues stand in square brackets, D forms with d. Residues, ends and D or L forms follow the SMILES beside them. Groups on a side chain read outwards from the residue. *: point of attachment. C20 diacid = O=C(O)CCCCCCCCCCCCCCCCCCC(=O)*; C18 diacid = O=C(O)CCCCCCCCCCCCCCCCC(=O)*; C17 diacid = O=C(O)CCCCCCCCCCCCCCCC(=O)*; γGlu = O=C(O)[C@H](CCC(=O)[*:2])N[*:1]; NMeY = CN[C@@H](Cc1ccc(O)cc1)C(=O)O; AEEA = NCCOCCOCC(=O)O; Aib = CC(C)(N)C(=O)O

T1 sequence (P43220 24-463): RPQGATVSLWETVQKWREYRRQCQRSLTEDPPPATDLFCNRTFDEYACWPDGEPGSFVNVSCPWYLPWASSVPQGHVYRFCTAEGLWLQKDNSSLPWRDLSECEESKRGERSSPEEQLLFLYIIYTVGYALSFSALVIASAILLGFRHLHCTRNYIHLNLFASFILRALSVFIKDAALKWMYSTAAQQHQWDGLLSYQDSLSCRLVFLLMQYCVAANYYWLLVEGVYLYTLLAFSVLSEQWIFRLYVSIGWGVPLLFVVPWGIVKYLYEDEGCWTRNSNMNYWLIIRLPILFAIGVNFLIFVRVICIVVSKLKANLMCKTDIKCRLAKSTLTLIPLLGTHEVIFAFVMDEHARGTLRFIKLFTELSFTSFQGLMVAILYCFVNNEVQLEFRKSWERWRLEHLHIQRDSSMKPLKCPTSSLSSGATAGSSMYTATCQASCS

Usually solubility stands for how much of the substance goes into solution per volume. Usually MRT stands for a mean duration of stay, worked out from the concentration-time curve. A word on the MRT last: it is the average time that molecules of a dose stay in the body. Regarding `CC[C@H](C)[C@H](NC(=O)[C@H](Cc1ccccc1)NC(=O)[C@@H](NC(=O)CNC(=O)[C@H](CCC(=O)O)NC(=O)C(C)(C)NC(=O)[C@H](Cc1ccc(O)cc1)NC)[C@@H](C)O)C(=O)N[C@@H](CO)C(=O)N[C@@H](CC(=O)O)C(=O)N[C@@H](Cc1ccc(O)cc1)C(=O)N[C@@H](CO)C(=O)N[C@H](C(=O)NC(C)(C)C(=O)N[C@@H](CC(C)C)C(=O)N[C@@H](CC(=O)O)C(=O)N[C@@H](CCCNC(=N)N)C(=O)NC(C)(C)C(=O)N[C@@H](C)C(=O)N[C@@H](CCC(N)=O)C(=O)NC(C)(C)C(=O)N[C@@H](CC(N)=O)C(=O)N[C@@H](Cc1ccccc1)C(=O)N[C@H](C(=O)N[C@@H](CC(N)=O)C(=O)N[C@@H](Cc1c[nH]c2ccccc12)C(=O)N[C@@H](CC(C)C)C(=O)N[C@@H](CC(C)C)C(=O)N[C@@H](C)C(=O)N[C@@H](CCC(N)=O)C(=O)N[C@@H](CCCCNC(=O)COCCOCCNC(=O)COCCOCCNC(=O)CC[C@H](NC(=O)CC[C@H](NC(=O)CCCCCCCCCCCCCCCC(=O)O)C(=O)O)C(=O)O)C(=O)N1CCC[C@H]1C(=O)N[C@@H](CO)C(=O)N[C@@H](CO)C(=O)NCC(=O)N[C@@H](C)C(=O)N1CCC[C@H]1C(=O)N1CCC[C@H]1C(=O)N1CCC[C@H]1C(=O)N[C@@H](CO)C(N)=O)C(C)C)[C@@H](C)CC` [Compound 16] (H-[NMeY][Aib]EGTFISDYSI[Aib]LDR[Aib]AQ[Aib]NFVNWLLAQK([AEEA-AEEA-γGlu-γGlu-C17 diacid])PSSGAPPPS-NH2), the fraction unbound at 30 min, 1000 nmol/L in series [1] (setting [7]) is under 0.0012; in series [2], at most 0.00116. Besides, the “free unbound peptide in human plasma (in words)” value in series [1] (judged for once per week (QW) dosing) is recorded as “optimum free unbound peptide”. Besides, the solubility in series [3] (pH 7.4, aqueous buffer, pH 7.4 Phosphate Buffer - Solubility, 200 mM Phosphate buffer pH 7.4) is at least 30 mg/mL; in series [3] (pH 7.4, solubility in phosphate buffer at pH 7.4, 200 mM phosphate buffer pH 7.4), at least 15 mg/mL. In addition, the MRT in series [4] (3 nmol/kg, read-out: mean residence time (MRT)) came to 59 h. Further, in series [4] (IV 3 nmol/kg, read-out: IV T½ (converted)), the half-life was 38 h. Besides, the MRT last in series [4] (SC 3 nmol/kg, read-out: SC MRT 0-last) is 59 h.

For `CC[C@H](C)[C@H](NC(=O)[C@H](CO)NC(=O)[C@H](Cc1ccc(O)cc1)NC(=O)[C@H](CC(=O)O)NC(=O)[C@H](CO)NC(=O)[C@@H](NC(=O)[C@H](Cc1ccccc1)NC(=O)[C@@H](NC(=O)CNC(=O)[C@H](CCC(=O)O)NC(=O)C(C)(C)NC(=O)[C@H](Cc1ccc(O)cc1)NC)[C@@H](C)O)[C@@H](C)CC)C(=O)N[C@@H](C)C(=O)N[C@@H](CC(C)C)C(=O)N[C@@H](CC(=O)O)C(=O)N[C@@H](CCCNC(=N)N)C(=O)NC(C)(C)C(=O)N[C@@H](C)C(=O)N[C@@H](CCC(N)=O)C(=O)NC(C)(C)C(=O)N[C@@H](CCCCNC(=O)COCCOCCNC(=O)COCCOCCNC(=O)CC[C@H](NC(=O)CC[C@H](NC(=O)CCCCCCCCCCCCCCCCC(=O)O)C(=O)O)C(=O)O)C(=O)N[C@@H](Cc1ccccc1)C(=O)N[C@H](C(=O)N[C@@H](CC(N)=O)C(=O)N[C@@H](Cc1c[nH]c2ccccc12)C(=O)N[C@@H](CC(C)C)C(=O)N[C@@H](CC(C)C)C(=O)N[C@@H](C)C(=O)N[C@@H](CCC(N)=O)C(=O)N[C@@H](CCCNC(=N)N)C(=O)NCC(=O)O)C(C)C` [Compound 37] (H-[NMeY][Aib]EGTFISDYSIALDR[Aib]AQ[Aib]K([AEEA-AEEA-γGlu-γGlu-C18 diacid])FVNWLLAQRG-OH), the figures for the fraction unbound in series [1] (setting [7]) and in series [2] were 0.001 and 0.0012, respectively. Besides, the solubility in series [3] (pH 7.4) is at least 15 mg/mL; in series [3] (pH 7.4, aqueous buffer), at least 30 mg/mL.

In the case of `CC[C@H](C)[C@H](NC(=O)[C@H](CO)NC(=O)[C@H](Cc1ccc(O)cc1)NC(=O)[C@H](CC(=O)O)NC(=O)[C@H](CO)NC(=O)[C@@H](NC(=O)[C@H](Cc1ccccc1)NC(=O)[C@@H](NC(=O)CNC(=O)[C@H](CCC(=O)O)NC(=O)C(C)(C)NC(=O)[C@H](Cc1ccc(O)cc1)NC)[C@@H](C)O)[C@@H](C)CC)C(=O)N[C@@H](C)C(=O)N[C@@H](CC(C)C)C(=O)N[C@@H](CC(=O)O)C(=O)N[C@@H](CCCNC(=N)N)C(=O)NC(C)(C)C(=O)N[C@@H](C)C(=O)N[C@@H](CCC(N)=O)C(=O)NC(C)(C)C(=O)N[C@@H](CCCCNC(=O)COCCOCCNC(=O)COCCOCCNC(=O)CC[C@H](NC(=O)CC[C@H](NC(=O)CCCCCCCCCCCCCCCCCCC(=O)O)C(=O)O)C(=O)O)C(=O)N[C@@H](Cc1ccccc1)C(=O)N[C@H](C(=O)N[C@@H](CC(N)=O)C(=O)N[C@@H](Cc1c[nH]c2ccccc12)C(=O)N[C@@H](CC(C)C)C(=O)N[C@@H](CC(C)C)C(=O)N[C@@H](C)C(=O)N[C@@H](CCC(N)=O)C(=O)N[C@@H](CCCCN)C(=O)NCC(=O)O)C(C)C` [Compound 39] (H-[NMeY][Aib]EGTFISDYSIALDR[Aib]AQ[Aib]K([AEEA-AEEA-γGlu-γGlu-C20 diacid])FVNWLLAQKG-OH), the fraction unbound in series [1] (setting [7]) was 0.0112; in series [2], 0.0015. For the same molecule, the solubility in series [3] (pH 7.4) was at least 15 mg/mL; in series [3] (pH 7.4, aqueous buffer), at least 30 mg/mL.

By EC50 is commonly meant the concentration needed to bring the measured effect to its halfway point. A high value points to a less potent agent. As to `CC[C@H](C)[C@H](NC(=O)[C@H](CO)NC(=O)[C@H](Cc1ccc(O)cc1)NC(=O)[C@H](CC(=O)O)NC(=O)[C@H](CO)NC(=O)[C@@H](NC(=O)[C@H](Cc1ccccc1)NC(=O)[C@@H](NC(=O)CNC(=O)[C@H](CCC(=O)O)NC(=O)C(C)(C)NC(=O)[C@H](Cc1ccc(O)cc1)NC)[C@@H](C)O)[C@@H](C)CC)C(=O)N[C@@H](C)C(=O)N[C@@H](CCCCNC(=O)CNC(=O)CNC(=O)CNC(=O)CNC(=O)CNC(=O)CCCCCCCCCCCCCCCCCCC(=O)O)C(=O)N[C@@H](CC(=O)O)C(=O)N[C@@H](CCCNC(=N)N)C(=O)NC(C)(C)C(=O)N[C@@H](C)C(=O)N[C@@H](CCC(N)=O)C(=O)NC(C)(C)C(=O)N[C@@H](CC(N)=O)C(=O)N[C@@H](Cc1ccccc1)C(=O)N[C@H](C(=O)N[C@@H](CC(N)=O)C(=O)N[C@@H](Cc1c[nH]c2ccccc12)C(=O)N[C@@H](CC(C)C)C(=O)N[C@@H](CC(C)C)C(=O)N[C@@H](C)C(=O)N[C@@H](CCC(N)=O)C(=O)N[C@@H](CO)C(=O)N1CCC[C@H]1C(=O)N[C@@H](CO)C(=O)N[C@@H](CO)C(=O)NCC(=O)N[C@@H](C)C(=O)N1CCC[C@H]1C(=O)N1CCC[C@H]1C(=O)N1CCC[C@H]1C(=O)N[C@@H](CO)C(=O)O)C(C)C` [Compound 40], the EC50 in series [5] was found to be 5.6 nM. Further, the “Oral Glucose Tolerance Test Percent decrease in blood glucose AUC (%) over 60 mins” value in series [6] was 102% (3 nmol/kg). Besides, the “Human PPB (FUplasma)” value in series [1] (fraction unbound, human plasma, 1000 nmol/L peptide, ultracentrifugation) is under 0.002. In addition, the fraction unbound at 30 min, 1000 nmol/L in series [2] turned out to be 0.0004.

The record behind these values is patent US20230143604A1, “QW DOSING OF GIP RECEPTOR AGONIST PEPTIDE COMPOUNDS AND USES THEREOF” (TAKEDA PHARMACEUTICAL COMPANY LIMITED, priority 2020, published 2023).
